Data reported in the NIST ThermoML archive (doi:10.1021/je049796y).
Numbers after ± are expanded uncertainties.

Experiment: xn = mol fraction of the nth substance listed
Details: 283.65 K, Vibrating tube method

C=C [ethene] + CCO
Details	mass density [kg/m3]
Liquid mixture 1, x1 = 0.685	529.3 ± 1.9
Liquid mixture 1, x1 = 0.712	503.5 ± 1.9
Liquid mixture 2, x1 = 0.862	410 ± 1.7
Liquid mixture 2, x1 = 0.892	385.6 ± 1.7

Liquid
Details	mass density [kg/m3]
x1 = 0.101	767.8 ± 0.7
x1 = 0.178	741.9 ± 0.8
x1 = 0.268	708.7 ± 0.8
x1 = 0.408	661.3 ± 0.8
x1 = 0.512	614.1 ± 1
x1 = 0.614	564.2 ± 1.3
x1 = 0.94	347.3 ± 2.1
x1 = 0.989	295.1 ± 2.1
